The results in this text go back to patent US20240156790A1, “COMPOUNDS, COMPOSITIONS, AND METHODS FOR MODULATING FERROPTOSIS AND TREATING EXCITOTOXIC DISORDERS” (THE TRUSTEES OF COLUMBIA UNIVERSITY IN THE CITY OF NEW YORK, priority 2018, published 2024).

Entries after “also recorded” stand apart in the source; their conditions may differ. Read-outs that look alike come from different tables or passages of the source.

A short description of data set [1]: Microsomal Stability Assay (Examples 6 and 8). The note with it: for microsomal stability / half-life, in words: assessed over two hours; for half-life at 20 µM: CD-1, mouse, liver microsomes. It is filed as in vitro ADME, mouse. How it is done:
(§1) To a 96-well polypropylene plate was added phosphate buffer (182.2 μL, pH 7.4, 100 mM) followed by addition of NADPH-regenerating system solution A (10 μL), and NADPH regenerating system solution B (2 μL) (Corning Gentest 3P NADPH regenerating system solution A (#451220) and B (#451200)). A stock solution of analog (0.8 μL. 5 mM) or fer-1 (positive control) was added and the mixture was warmed to 37° C. for 5 min. Mouse microsomes (CD-1, 20 mg/mL, Life Technologies) (5 μL, thawed in 37° C. water bath before use) were added. The resulting reaction mixture was kept at 37° C. with gentle agitation for the duration of the experiment. At selected time points (0, 1, 5, 10, 20, 30, 60 and 120 min) aliquots (15 μL) were withdrawn from the plate and quenched upon addition to cold methanol (60 μL), containing an internal standard (5 μM) in a separate 96-well polypropylene plate. At the completion of the final time-point, the samples were centrifuged at 4,000 rpm for 5 min at 4° C. The supernatant (40 μL) was withdrawn and transferred to a sample vial with insert. The samples were analyzed by LC-MS. LC-MS analysis was performed on a platform comprising a Thermo Scientific Dionex Ultimate 3000 and a Bruker amaZon SL equipped with an electrospray ionization source controlled by Bruker Hystar 3.2. Chromatographic separation was performed by injecting 5 μL of the sample onto an Agilent Eclipse Plus C18 column (2.1×50 mm, 3.5 μm) maintained at 20° C. The flow rate was maintained at 400 μL/min. The initial flow conditions were 80% solvent A (water containing 0.1% acetic acid) and 20% solvent B (methanol containing 0.1% acetic acid). Solvent B was raised to 80% over 0.50 min by 1.50 min. Solvent B was raised to 100% by 5.00 min and held there for 3.25 min. […] All analogs were detected in positive mode as [M+H]*. The percent of compound remaining at each time-point was calculated as the ratio of the integrated compound peak over the internal standard peak and standardized to the t=0 time-point. Values were plotted in GraphPad Prism 9 and fit with a one phase decay.
as §1, with “and NADPH-regenerating” for “and NADPH regenerating”, “rpm (1872 g)” for “rpm”, “[M+H]*. […]” for “[M+H]*. The percent of compound remaining at each time-point was calculated as the ratio of the integrated compound peak over the internal standard peak and standardized to the t=0 time-point. Values were plotted in GraphPad Prism 9 and fit with a one phase decay.”

Data set [2] is described as follows: Solubility in the in vivo injection vehicle. It counts as physicochemical. The note with it: solution prepared for in vivo injection, no precipitation observed. How it is done:
To achieve the 20 mg/kg dose for each compound, mice were injected with a 2 mg/mL solution in the vehicle described above.

Data set [3] relates to R6/2 Huntington's mouse model. As to the kind of experiment: 30-day toxicity study in symptomatic R6/2 and wild type mice. It is filed as in vivo. The note with it: for tolerability of chronic administration: 20 mg/kg daily for 30 days, IP and PO; for deaths after 30 days / protection against body weight loss: R6/2 mice; for deaths after 30 days: 20 mg/kg daily. How it is done:
In order to assess whether ferrostatins can be used in a long-term efficacy, we performed a toxicity study with the three analogs to determine whether symptomatic R6/2 mice could tolerate chronic administration of analog. Use TH-4-55-2 as an example: symptomatic R6/2 mice of both sexes at ˜10 weeks of age were dosed daily with 20 mg/kg TH-4-55-2 via both IP and oral gavage for 30 days. Body weight was measured and recorded and the % change in body weight from the baseline calculated. Any mice that lost more than 20% of their body weight for three days were euthanized prior to the completion of the study.
Ferrostatin analogs were dissolved in 5% DMSO/95% of 1:1 [(65% v/v of 25% w/v 2-hydroxypropyl-β-cyclodextrin dissolved in 20% EtOH, 30% v/v Poly(ethylene glycol)-400, 5% v/v Tween 80):MilliQ water] to create a 2 mg/mL solution. The same formulation without analog was used as a vehicle control. The solution was sterilized using a […] Steriflip filter unit. C57BL/6 and R6/2 mice at ˜10 weeks of age, after onset of symptoms in R6/2 mice, were injected with ferrostatin analog or vehicle at a dose of 20 mg/kg daily for 30 days via IP and PO routes of administration. […] Mice were randomly assigned to each condition, weighed daily, the weight recorded, and the change in body weight compared to the baseline, pre-injection weight was calculated. Any mouse that lost more than 20% of its baseline body weight for three consecutive days was euthanized prior to the completion of the study. Injections occurred daily at the same time in the day to ensure consistency. Experimental blinding was achieved by separating the syringe preparation and the injection and data analysis components, with one researcher preparing the syringes and the other injecting the mice and analyzing the data. Unblinding occurred at the termination of the study after the completion of data analysis. Data were plotted and analyzed in Graph Pad Prism 9.0 with significance determined via Two Way ANOVA or Mixed-effects model with Tukey's test for multiple comparisons.
Symptomatic R6/2 and age-matched C57BL/6 wild type mice of both sexes at ˜10 weeks of age were dosed daily with 20 mg/kg of TH-4-55-2 via IP or PO for 30 days. Body weight was measured and recorded and the percent change in body weight from baseline calculated. Per IACUC guidelines, any mouse that lost more than 20% body weight for three days was euthanized prior to completion of the study.

Where [4] appears, read: pH 7.4, independent test I, read-out: t1/2 I.
Setting [5] is: pH 7.4, independent test II, read-out: t1/2 II.
Where [6] appears, read: pH 7.4, independent test III, read-out: t1/2 III.
[7] abbreviates: pH 7.4, text, read-out: half-life in mouse liver microsomes.

For the compound `Cc1noc(-c2ccc(NC3CCCCC3)c(NC3CCCCC3)c2)n1` [PHB4082, N1,N2-dicyclohexyl-4-(3-methyl-1,2,4-oxadiazol-5-yl)benzene-1,2-diamine], the “microsomal stability / half-life, in words” value in data set [1] is “half-lives greater than two hours”.
Consider `CCC(CC)Nc1cc(-c2nc(C)no2)cnc1NC1CCCCC1` [TH-4-55-2, N^2-cyclohexyl-5-(3-methyl-1,2,4-oxadiazol-5-yl)-N^3-(pentan-3-yl)pyridine-2,3-diamine], for which, in data set [2], the “Concentration (mM)” value amounted to 5.8 mM. Besides, the “Concentration (mg/mL)” value in data set [2] is reported as 2 mg/mL. For the same compound, in data set [3], the “tolerability of chronic administration” value is “well-tolerated in a 30-day toxicity study in wild-type mice and symptomatic R6/2 HD mice; also recorded: non-toxic and well-tolerated by R6/2 mice”. Further, the “deaths after 30 days” value in data set [3] (IP administration) is “one TH-4-55-2-treated mouse died”; in data set [3] (PO administration, 20 mg/kg) it was “one TH-4-55-2-treated mouse died; also recorded: one TH-4-55-2-treated mice died”. Besides, the “protection against body weight loss” value in data set [3] (PO administration, 20 mg/kg) is on record as “protected from body weight loss over time; also recorded: showed protection against HD-related weight loss; also recorded: showed a significant protective effect; also recorded: appeared to have no loss in body weight during the injection series”. The half-life at 20 µM in data set [1] (setting [4]) is greater than 120 min; in data set [1] (setting [5]), greater than 120 min; in data set [1] (setting [6]) it was greater than 120 min; in data set [1] (setting [7]), greater than 60 min. The “microsomal stability / half-life, in words” value in data set [1] is on record as “half-life greater than two hours”.
For the compound `Cc1noc(-c2cnc(NC3CCCC3)c(NC3CCCC3)c2)n1` [TH-4-67, N^2,N^3-dicyclopentyl-5-(3-methyl-1,2,4-oxadiazol-5-yl)pyridine-2,3-diamine], the “Concentration (mM)” value in data set [2] was 6.1 mM. Further, the “Concentration (mg/mL)” value in data set [2] was 2 mg/mL. Also, the “tolerability of chronic administration” value in data set [3] is “no detectable weight loss induced by either compound”. For the same compound, in data set [3] (PO administration, 20 mg/kg), the “protection against body weight loss” value is “didn't show this protective effect”. For the same compound, the half-life at 20 µM was greater than 120 min in data set [1] (setting [4]), greater than 120 min in data set [1] (setting [5]), greater than 120 min in data set [1] (setting [6]) and greater than 60 min in data set [1] (setting [7]). Also, in data set [1], the “microsomal stability / half-life, in words” value is “half-life greater than two hours”.
In the case of `CCOC(=O)c1ccc(NC2CCCCC2)c(N)c1` [Fer-1, Ferrostatin-1, reference compound], the half-life at 20 µM in data set [1] (setting [7]) stood at 2.4 min.
Take `Cc1noc(-c2cnc(NC3CCCCC3)c(NC3CCCCC3)c2)n1` [TH-2-31, N^2,N^3-dicyclohexyl-5-(3-methyl-1,2,4-oxadiazol-5-yl)pyridine-2,3-diamine]: in data set [2], the “Concentration (mM)” value worked out at 5.6 mM. The “Concentration (mg/mL)” value in data set [2] is given as 2 mg/mL. In addition, the “tolerability of chronic administration” value in data set [3] was “no detectable weight loss induced by either compound”. Moreover, the “protection against body weight loss” value in data set [3] (PO administration, 20 mg/kg) was “didn't show this protective effect”. Besides, the half-life at 20 µM in data set [1] (setting [4]) is greater than 120 min; in data set [1] (setting [5]), greater than 120 min; in data set [1] (setting [6]) it was greater than 120 min; in data set [1] (setting [7]), 30 to 60 min. The “microsomal stability / half-life, in words” value in data set [1] is reported as “the most stable; also recorded: half-life greater than two hours”.
